Assays:
Type in all cases: in vivo
[1] = tested on: Abutilon theophrasti (ABUTH); experiment: Herbicidal pre-emergence action (A), 1280 g/ha; details: visual grading after ca. 3 weeks vs untreated controls, 100% = plants have died off, 0% = as control plants
Procedure, shortened: (§1)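 Greenhouse pre-emergence test: formulated compound (WP/EC plus 0.5% additive, 600 l/ha water) applied to the soil over sown seeds in sandy loam. Percent herbicidal effect was rated by eye after ca. 3 weeks relative to untreated pots.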

[2] = tested on: Alopecurus myosuroides (ALOMY); experiment: Herbicidal pre-emergence action (A), 1280 g/ha; details: visual grading after ca. 3 weeks vs untreated controls, 100% = plants have died off, 0% = as control plants
Procedure, shortened: as §1

[3] = tested on: Amaranthus retroflexus (AMARE); experiment: Herbicidal pre-emergence action (A), 1280 g/ha; details: visual grading after ca. 3 weeks vs untreated controls
Procedure, shortened: as §1

[4] = tested on: Echinochloa crus-galli (ECHCG); experiment: Herbicidal pre-emergence action (A), 1280 g/ha; details: visual grading after ca. 3 weeks vs untreated controls, 100% = plants have died off, 0% = as control plants
Procedure, shortened: as §1

[5] = tested on: Kochia scoparia (KCHSC; Bassia scoparia); experiment: Herbicidal pre-emergence action (A), 1280 g/ha; details: visual grading after ca. 3 weeks vs untreated controls
Procedure, shortened: as §1

Lolium rigidum (LOLRI) [6] = experiment: Herbicidal pre-emergence action (A), 1280 g/ha; details: visual grading after ca. 3 weeks vs untreated controls, 100% = plants have died off, 0% = as control plants
Procedure, shortened: as §1

[7] = tested on: Matricaria inodora (MATIN); experiment: Herbicidal pre-emergence action (A), 1280 g/ha; details: visual grading after ca. 3 weeks vs untreated controls
Procedure, shortened: as §1

Poa annua (POAAN) [8] = experiment: Herbicidal pre-emergence action (A), 1280 g/ha; details: visual grading after ca. 3 weeks vs untreated controls, 100% = plants have died off, 0% = as control plants
Procedure, shortened: as §1

Setaria viridis (SETVI) [9] = experiment: Herbicidal pre-emergence action (A), 1280 g/ha; details: visual grading after ca. 3 weeks vs untreated controls
Procedure, shortened: as §1

Stellaria media (STEME) [10] = experiment: Herbicidal pre-emergence action (A), 1280 g/ha; details: visual grading after ca. 3 weeks vs untreated controls
Procedure, shortened: as §1

Veronica persica (VERPE) [11] = experiment: Herbicidal pre-emergence action (A), 1280 g/ha; details: visual grading after ca. 3 weeks vs untreated controls
Procedure, shortened: as §1

[12] = tested on: Alopecurus myosuroides (ALOMY); experiment: Herbicidal post-emergence action (B), 1280 g/ha; details: rated visually after about 3 weeks vs untreated controls
Procedure, shortened: (§2)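 Foliar post-emergence treatment of one-leaf-stage weeds with WP or EC preparations in water plus 0.5% additive, sprayed at 600 L/ha. Visual efficacy was assessed after roughly 3 weeks relative to untreated controls, 100% being complete kill.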

[13] = tested on: Echinochloa crus-galli (ECHCG); experiment: Herbicidal post-emergence action (B), 1280 g/ha; details: rated visually after about 3 weeks vs untreated controls
Procedure, shortened: as §2

[14] = tested on: Kochia scoparia (KCHSC; Bassia scoparia); experiment: Herbicidal post-emergence action (B), 1280 g/ha
Procedure, shortened: as §2

Poa annua (POAAN) [15] = experiment: Herbicidal post-emergence action (B), 1280 g/ha; details: rated visually after about 3 weeks vs untreated controls
Procedure, shortened: as §2

Stellaria media (STEME) [16] = experiment: Herbicidal post-emergence action (B), 1280 g/ha
Procedure, shortened: as §2

Veronica persica (VERPE) [17] = experiment: Herbicidal post-emergence action (B), 1280 g/ha
Procedure, shortened: as §2

[18] = tested on: Alopecurus myosuroides (ALOMY); experiment: Herbicidal pre-emergence action (C), 320 g/ha; details: ca. 3 weeks
From the text: (§3) ABUTH: Abutilon theophrasti AGSTE: Agrostis tenuis ALOMY: Alopecurus myosuroides AMARE Amaranthus retroflexus DIGSA: Digitaria sanguinalis ECHCG: Echinochloa crus-galli KCHSC: Kochia scoparia LOLRI: Lolium rigidum MATIN: Matricaria inodora POAAN: Poa annua POLCO: Polygonum convolvulus SETVI: Setaria viridis STEME: Stellaria media VERPE: Veronica persica VIOTR: Viola tricolor
(§4) Seeds of mono- and dicotyledonous weed plants and crop plants were sown, in plastic or organic planting pots, in sandy loam and covered with soil. The compounds according to the invention, formulated in the form of wettable powders (WP) or as emulsifiable concentrates (EC), were applied to the surface of the covering soil as aqueous suspension or emulsion, with the addition of 0.5% of an additive, at an application rate of 600 l of water/ha (converted).
(§5) Following treatment, the pots were placed in a greenhouse and kept under optimum growth conditions for the test plants. The visual grading of the damage to the test plants was carried out after ca. 3 weeks in comparison to untreated controls (herbicidal effect in percent (%): 100% effect=plants have died off, 0% effect=as control plants).
(§6) Tables C1 to C13 below show the effects of selected compounds of the general formula (I) according to table 1 on various harmful plants and an application rate corresponding to 320 g/ha obtained by the experimental procedure mentioned above.

[19] = tested on: Amaranthus retroflexus (AMARE); experiment: Herbicidal pre-emergence action (C), 320 g/ha; details: ca. 3 weeks
From the text: as §3, §4, §5, §6

[20] = tested on: Echinochloa crus-galli (ECHCG); experiment: Herbicidal pre-emergence action (C), 320 g/ha; details: ca. 3 weeks
From the text: as §3, §4, §5, §6

Lolium rigidum (LOLRI) [21] = experiment: Herbicidal pre-emergence action (C), 320 g/ha; details: ca. 3 weeks
From the text: as §3, §4, §5, §6

[22] = tested on: Matricaria inodora (MATIN); experiment: Herbicidal pre-emergence action (C), 320 g/ha; details: ca. 3 weeks
From the text: as §3, §4, §5, §6

Setaria viridis (SETVI) [23] = experiment: Herbicidal pre-emergence action (C), 320 g/ha; details: ca. 3 weeks
From the text: as §3, §4, §5, §6

[24] = tested on: Amaranthus retroflexus (AMARE); experiment: Herbicidal post-emergence action (D), 320 g/ha; details: ca. 3 weeks
From the text: as §3
(§7) Seeds of mono- and dicotyledonous weed plants and crop plants were sown, in plastic or organic planting pots, in sandy loam, covered with soil and grown in a greenhouse under controlled growth conditions. 2 to 3 weeks after sowing, the test plants were sprayed in the single-leaf stage. The compounds according to the invention, formulated in form of wettable powders (WP) or as emulsifiable concentrates (EC), were sprayed onto the green plant parts as aqueous suspension or emulsion, with the addition of 0.5% of an additive, at an application rate of 600 l of water/ha (converted). The test plants were placed in the greenhouse for ca. 3 weeks under optimum growth conditions, and then the effect of the preparations was assessed visually in comparison with untreated controls (herbicidal effect in percent (%): 100% effect=plants have died off, 0% effect=as control plants).
(§8) Tables D1 to D13 below show the effects of selected compounds of the general formula (I) according to table 1 on various harmful plants and an application rate corresponding to 320 g/ha obtained by the experimental procedure mentioned above.

[25] = tested on: Echinochloa crus-galli (ECHCG); experiment: Herbicidal post-emergence action (D), 320 g/ha; details: ca. 3 weeks
From the text: as §3, §7, §8

Setaria viridis (SETVI) [26] = experiment: Herbicidal post-emergence action (D), 320 g/ha; details: ca. 3 weeks
From the text: as §3, §7, §8

Veronica persica (VERPE) [27] = experiment: Herbicidal post-emergence action (D), 320 g/ha; details: ca. 3 weeks
From the text: as §3, §7, §8

[28] = tested on: Amaranthus retroflexus (AMARE); experiment: Herbicidal post-emergence action (B), 1280 g/ha; details: rated visually after about 3 weeks vs untreated controls
Procedure, shortened: as §2

[29] = tested on: Matricaria inodora (MATIN); experiment: Herbicidal post-emergence action (B), 1280 g/ha; details: rated visually after about 3 weeks vs untreated controls
Procedure, shortened: as §2

Veronica persica (VERPE) [30] = experiment: Herbicidal pre-emergence action (C), 320 g/ha; details: ca. 3 weeks
From the text: as §3, §4, §5, §6

[31] = tested on: Digitaria sanguinalis (DIGSA); experiment: Herbicidal pre-emergence action (A), 1280 g/ha; details: visual grading after ca. 3 weeks vs untreated controls, 100% = plants have died off, 0% = as control plants
Procedure, shortened: as §1

[32] = tested on: Abutilon theophrasti (ABUTH); experiment: Herbicidal post-emergence action (B), 1280 g/ha; details: rated visually after about 3 weeks vs untreated controls
Procedure, shortened: as §2

Setaria viridis (SETVI) [33] = experiment: Herbicidal post-emergence action (B), 1280 g/ha; details: rated visually after about 3 weeks vs untreated controls
Procedure, shortened: as §2

Clc1cc2scnc2nc1-c1ccsc1Cl [Example I-190]
100%: ALOMY, herbicidal effect in percent (%) [2] | ECHCG, herbicidal effect in percent (%) [4] | LOLRI, herbicidal effect in percent (%) (Lolium rigidum (LOLRI) [6]) | herbicidal effect MATIN [7] | POAAN, herbicidal effect in percent (%) (Poa annua (POAAN) [8]) | herbicidal effect SETVI (Setaria viridis (SETVI) [9]) | herbicidal activity ALOMY [12] | herbicidal activity ECHCG [13] | herbicidal activity POAAN (Poa annua (POAAN) [15]) | herbicidal effect VERPE (Veronica persica (VERPE) [17]) | herbicidal effect ALOMY [18] | herbicidal effect ECHCG [20] | herbicidal effect LOLRI (Lolium rigidum (LOLRI) [21]) | herbicidal effect SETVI (Setaria viridis (SETVI) [23])
90%: ABUTH, herbicidal effect in percent (%) [1] | herbicidal effect AMARE [3] | herbicidal effect KCHSC [5] | herbicidal effect STEME (Stellaria media (STEME) [10]) | herbicidal effect VERPE (Veronica persica (VERPE) [11]) | herbicidal effect KCHSC [14] | herbicidal effect STEME (Stellaria media (STEME) [16]) | herbicidal effect AMARE [19] | herbicidal effect ECHCG [25]
80%: herbicidal effect MATIN [22] | herbicidal effect AMARE [24] | herbicidal effect SETVI (Setaria viridis (SETVI) [26]) | herbicidal effect VERPE (Veronica persica (VERPE) [27])

Cc1sccc1-c1nc2ncsc2cc1Br [Example I-135]
100%: ECHCG, herbicidal effect in percent (%) [4] | LOLRI, herbicidal effect in percent (%) (Lolium rigidum (LOLRI) [6]) | herbicidal effect MATIN [7] | POAAN, herbicidal effect in percent (%) (Poa annua (POAAN) [8]) | herbicidal effect SETVI (Setaria viridis (SETVI) [9]) | herbicidal effect ALOMY [18] | herbicidal effect ECHCG [20] | herbicidal effect LOLRI (Lolium rigidum (LOLRI) [21]) | herbicidal effect SETVI (Setaria viridis (SETVI) [23])
90%: ALOMY, herbicidal effect in percent (%) [2] | herbicidal effect AMARE [3] | herbicidal effect KCHSC [5] | herbicidal effect STEME (Stellaria media (STEME) [10]) | herbicidal effect VERPE (Veronica persica (VERPE) [11]) | herbicidal activity ALOMY [12] | herbicidal activity AMARE [28] | herbicidal effect KCHSC [14] | herbicidal activity MATIN [29] | herbicidal activity POAAN (Poa annua (POAAN) [15]) | herbicidal effect VERPE (Veronica persica (VERPE) [17]) | herbicidal effect AMARE [19]
80%: herbicidal effect MATIN [22] | herbicidal effect VERPE (Veronica persica (VERPE) [30]) | herbicidal effect ECHCG [25]

Cc1cc2scnc2nc1-c1ccccc1C(F)(F)F [Example I-064]
90%: ABUTH, herbicidal effect in percent (%) [1] | herbicidal effect VERPE (Veronica persica (VERPE) [11]) | herbicidal effect VERPE (Veronica persica (VERPE) [17])
100%: herbicidal effect AMARE [3] | DIGSA, herbicidal effect in percent (%) [31] | ECHCG, herbicidal effect in percent (%) [4] | herbicidal effect KCHSC [5] | LOLRI, herbicidal effect in percent (%) (Lolium rigidum (LOLRI) [6]) | POAAN, herbicidal effect in percent (%) (Poa annua (POAAN) [8]) | herbicidal effect SETVI (Setaria viridis (SETVI) [9]) | herbicidal effect STEME (Stellaria media (STEME) [10]) | herbicidal effect KCHSC [14] | herbicidal activity MATIN [29] | herbicidal effect STEME (Stellaria media (STEME) [16])

Fc1cccc(-c2nc3ncsc3cc2Cl)c1F [Example I-114]
80%: herbicidal effect MATIN [22] | herbicidal effect VERPE (Veronica persica (VERPE) [30])
90%: ABUTH, herbicidal effect in percent (%) [1] | herbicidal effect AMARE [3] | herbicidal effect KCHSC [5] | herbicidal effect MATIN [7] | herbicidal effect STEME (Stellaria media (STEME) [10]) | herbicidal activity ABUTH [32] | herbicidal activity ALOMY [12] | herbicidal activity AMARE [28] | herbicidal activity ECHCG [13] | herbicidal effect KCHSC [14] | herbicidal activity SETVI (Setaria viridis (SETVI) [33]) | herbicidal effect VERPE (Veronica persica (VERPE) [17]) | herbicidal effect ALOMY [18] | herbicidal effect AMARE [19] | herbicidal effect SETVI (Setaria viridis (SETVI) [23])
100%: ALOMY, herbicidal effect in percent (%) [2] | ECHCG, herbicidal effect in percent (%) [4] | LOLRI, herbicidal effect in percent (%) (Lolium rigidum (LOLRI) [6]) | POAAN, herbicidal effect in percent (%) (Poa annua (POAAN) [8]) | herbicidal effect SETVI (Setaria viridis (SETVI) [9]) | herbicidal effect VERPE (Veronica persica (VERPE) [11]) | herbicidal effect ECHCG [20] | herbicidal effect LOLRI (Lolium rigidum (LOLRI) [21])
